Assay: Phase I dose escalation study: safety, tolerability, DLT and MTD
Assay type: in vivo

## Cc1cccc2c1NC(=O)[C@@H](NC(=O)[C@H](CCC(F)(F)F)[C@H](CCC(F)(F)F)C(N)=O)N=C2c1cccc(F)c1 [BMS-986115]
Arm B BIW 2 mg (N = 2)
  Abdominal pain (drug related AE, all grades): 1 (50) n (%)
  Blood creatinine increased (drug related AE, all grades): 0 n (%)
  Colitis (drug related AE, Grade 3 and 4): 0 n (%)
  Cough (drug related AE, Grade 3 and 4): 0 n (%)
  Cough (drug related AE, all grades): 0 n (%)
  Decreased Appetite (drug related AE, Grade 3 and 4): 0 n (%)
  Decreased Appetite (drug related AE, all grades): 0 n (%)
  Dehydration (drug related AE, Grade 3 and 4): 0 n (%)
  Dehydration (drug related AE, all grades): 0 n (%)
  Dermatitis acneiform (drug related AE, all grades): 0 n (%)
  Diarrhoea (drug related AE, Grade 3 and 4): 1 (50) n (%)
  Diarrhoea (drug related AE, all grades): 1 (50) n (%)
  Dry mouth (drug related AE, all grades): 0 n (%)
  Dry skin (drug related AE, all grades): 0 n (%)
  Dysgeusia (drug related AE, all grades): 0 n (%)
  Dyspepsia (drug related AE, all grades): 1 (50) n (%)
  Dysphonia (drug related AE, all grades): 0 n (%)
  Fatigue (drug related AE, Grade 3 and 4): 0 n (%)
  Fatigue (drug related AE, all grades): 1 (50) n (%)
  Flatulence (drug related AE, all grades): 0 n (%)
  Hypocalcaemia (drug related AE, Grade 3 and 4): 0 n (%)
  Hypocalcaemia (drug related AE, all grades): 0 n (%)
  Hypokalaemia (drug related AE, Grade 3 and 4): 0 n (%)
  Hypokalaemia (drug related AE, all grades): 0 n (%)
  Hyponatraemia (drug related AE, Grade 3 and 4): 0 n (%)
  Hyponatraemia (drug related AE, all grades): 0 n (%)
  Hypophosphataemia (drug related AE, Grade 3 and 4): 1 (50) n (%)
  Hypophosphataemia (drug related AE, all grades): 1 (50) n (%)
  Ileus (drug related AE, Grade 3 and 4): 0 n (%)
  Increased upper airway secretion (drug related AE, all grades): 0 n (%)
  Laryngeal pain (drug related AE, all grades): 0 n (%)
  Leucocytosis (drug related AE, Grade 3 and 4): 0 n (%)
  Mouth ulceration (drug related AE, all grades): 0 n (%)
  Nausea (drug related AE, Grade 3 and 4): 0 n (%)
  Nausea (drug related AE, all grades): 1 (50) n (%)
  Pruritus (drug related AE, Grade 3 and 4): 0 n (%)
  Pruritus (drug related AE, all grades): 0 n (%)
  Pulmonary embolism (drug related AE, Grade 3 and 4): 0 n (%)
  Rash (drug related AE, all grades): 0 n (%)
  Rash maculopapular (drug related AE, all grades): 0 n (%)
  Sinusitis (drug related AE, all grades): 0 n (%)
  Urticaria (drug related AE, Grade 3 and 4): 0 n (%)
  Vision blurred (drug related AE, all grades): 0 n (%)
  Vomiting (drug related AE, Grade 3 and 4): 0 n (%)
  Vomiting (drug related AE, all grades): 0 n (%)
  Weight decreased (drug related AE, all grades): 0 n (%)
Arm B BIW 2 mg, 2 DLT evaluable patients
  No. of patients with DLTs: 0
Arm B BIW 4 mg (N = 2)
  Abdominal distension (drug related AE, all grades): 1 (50) n (%)
  Abdominal pain (drug related AE, Grade 3 and 4): 0 n (%)
  Abdominal pain (drug related AE, all grades): 0 n (%)
  Blood creatinine increased (drug related AE, all grades): 0 n (%)
  Colitis (drug related AE, Grade 3 and 4): 0 n (%)
  Cough (drug related AE, Grade 3 and 4): 0 n (%)
  Cough (drug related AE, all grades): 0 n (%)
  Decreased Appetite (drug related AE, Grade 3 and 4): 0 n (%)
  Decreased Appetite (drug related AE, all grades): 0 n (%)
  Dehydration (drug related AE, Grade 3 and 4): 0 n (%)
  Dehydration (drug related AE, all grades): 0 n (%)
  Dermatitis acneiform (drug related AE, all grades): 0 n (%)
  Diarrhoea (drug related AE, Grade 3 and 4): 0 n (%)
  Diarrhoea (drug related AE, all grades): 0 n (%)
  Dry mouth (drug related AE, all grades): 0 n (%)
  Dry skin (drug related AE, all grades): 0 n (%)
  Dysgeusia (drug related AE, all grades): 1 (50) n (%)
  Dyspepsia (drug related AE, all grades): 0 n (%)
  Dysphonia (drug related AE, all grades): 0 n (%)
  Fatigue (drug related AE, Grade 3 and 4): 0 n (%)
  Fatigue (drug related AE, all grades): 1 (50) n (%)
  Flatulence (drug related AE, all grades): 1 (50) n (%)
  Hypocalcaemia (drug related AE, Grade 3 and 4): 0 n (%)
  Hypocalcaemia (drug related AE, all grades): 0 n (%)

Source: article PMC7523345 (Investigational new drugs, 2018)
